Source: US20240043386A1, “Modulators of the Cystic Fibrosis Transmembrane Conductance Regulator Protein and Methods of Use” (AbbVie Global Enterprises Ltd., priority 2021, published 2024)
Where two headings read alike, the source gives them in different places.

Columns and labels:
F508del/F508del CFTR = target: T1, F508del/F508del CFTR (Homo sapiens, UniProt P13569, DEL508-508); assay: Trans-Epithelial Current Clamp (TECC) assay using primary human bronchial epithelial cells; format: cell-based; settings: for Emax (% Dual): maximum percent activity relative to positive control (co-corrector 0.15 μM + potentiator 0.45 μM = 100%), primary hBE cells F508del/F508del; for EC50: primary hBE cells homozygous F508del/F508del, test C2 corrector with co-corrector and potentiator, 18-24 hours at 37° C., equivalent CFTR current (IEQ)/AUC
T1 construct: cells isolated from CF patients with the homozygous mutation; endogenous in cells; host or cells: primary human bronchial epithelial (hBE) cells from CF patients homozygous for F508del
T1 sequence (P13569 with tags, fused parts or gaps DEL508-508): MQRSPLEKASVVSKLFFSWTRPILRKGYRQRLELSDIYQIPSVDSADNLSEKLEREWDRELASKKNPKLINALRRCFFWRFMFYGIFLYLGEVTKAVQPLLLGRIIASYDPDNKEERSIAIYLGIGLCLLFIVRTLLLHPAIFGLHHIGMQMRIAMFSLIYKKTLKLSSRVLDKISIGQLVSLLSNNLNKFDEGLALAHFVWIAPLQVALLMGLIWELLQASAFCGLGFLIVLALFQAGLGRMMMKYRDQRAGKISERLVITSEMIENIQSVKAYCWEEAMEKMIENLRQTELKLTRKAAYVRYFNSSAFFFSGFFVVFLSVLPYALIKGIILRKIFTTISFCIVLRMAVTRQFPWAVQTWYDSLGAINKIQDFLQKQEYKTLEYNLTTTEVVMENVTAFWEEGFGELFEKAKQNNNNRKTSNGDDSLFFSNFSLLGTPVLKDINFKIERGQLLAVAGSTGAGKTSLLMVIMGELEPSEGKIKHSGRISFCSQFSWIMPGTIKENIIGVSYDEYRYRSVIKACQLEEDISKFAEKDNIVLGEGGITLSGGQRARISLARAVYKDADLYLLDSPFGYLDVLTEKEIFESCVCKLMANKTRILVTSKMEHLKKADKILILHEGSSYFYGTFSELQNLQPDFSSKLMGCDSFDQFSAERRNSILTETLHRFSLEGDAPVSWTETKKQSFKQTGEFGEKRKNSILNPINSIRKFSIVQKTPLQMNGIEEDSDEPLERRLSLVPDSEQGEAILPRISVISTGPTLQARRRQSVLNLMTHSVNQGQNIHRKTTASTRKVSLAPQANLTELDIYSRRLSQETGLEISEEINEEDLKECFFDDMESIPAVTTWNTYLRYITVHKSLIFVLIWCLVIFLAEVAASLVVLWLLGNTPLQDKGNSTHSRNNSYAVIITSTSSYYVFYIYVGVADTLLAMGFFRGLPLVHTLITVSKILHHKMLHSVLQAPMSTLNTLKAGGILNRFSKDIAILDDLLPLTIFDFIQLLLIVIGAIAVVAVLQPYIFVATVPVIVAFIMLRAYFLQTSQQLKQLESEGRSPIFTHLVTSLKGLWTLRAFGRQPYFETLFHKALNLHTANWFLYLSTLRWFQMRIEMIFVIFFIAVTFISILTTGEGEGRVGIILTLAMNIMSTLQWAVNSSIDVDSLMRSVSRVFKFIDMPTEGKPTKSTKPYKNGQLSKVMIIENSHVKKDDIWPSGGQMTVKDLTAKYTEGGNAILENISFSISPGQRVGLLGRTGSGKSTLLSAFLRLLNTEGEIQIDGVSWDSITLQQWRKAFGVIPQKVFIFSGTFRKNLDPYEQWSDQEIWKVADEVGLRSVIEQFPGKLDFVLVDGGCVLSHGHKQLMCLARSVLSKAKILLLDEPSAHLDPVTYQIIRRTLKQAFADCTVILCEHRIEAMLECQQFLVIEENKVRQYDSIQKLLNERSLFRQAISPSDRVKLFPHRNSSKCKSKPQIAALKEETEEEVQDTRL
Summary of the method: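 Readout is the equivalent CFTR current (IEQ, from offset-corrected VT and RT) plus AUC from forskolin peak to bumetanide addition, recorded on TECC-24 at 36.5° C. Beforehand, homozygous F508del hBE cultures received correctors with co-corrector and potentiator basolaterally for 18-24 h at 37° C.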

F508delCFTR = target: T2, F508delCFTR (Homo sapiens, UniProt P13569, DEL508-508); assay: Cell Surface Expression-Horse Radish Peroxidase (CSE-HRP) assay in CFBE41o-F508delCFTR-HRP cells; format: cell-based; settings: for EC50: CFBE41o-F508delCFTR-HRP cells, 18-24 hours at 33° C., luminescence; for Maximum % activity (with co-corrector) / Maximum % activity (without co-corrector): normalized to on-plate positive control corrector (2 μM)
T2 construct: expressed in transfected cells; host or cells: CFBE41o- human lung-derived epithelial cell line, doxycycline-inducible expression
T2 sequence (P13569 with tags, fused parts or gaps DEL508-508): as above
Summary of the method: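 Test compounds were tested alone or alongside a co-corrector (2 μM), 8-point 3-fold series from 20 or 30 μM, for 18–24 h at 33 °C on doxycycline-induced CFBE41o-F508delCFTR-HRP cells. After washing, luminol luminescence reported cell-surface HRP-tagged CFTR, normalized to the positive control (% activity). EC50 was fitted with a variable Hill slope sigmoid from triplicate plates; Z′ >0.5 required.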

[1] = with co-corrector (2 μM), read-out: EC50 (with co-corrector)
[2] = without co-corrector, read-out: EC50 (without co-corrector)

SMILES	Emax (% Dual) (F508del/F508del CFTR)	EC50 (F508del/F508del CFTR) [nM]	EC50 (F508delCFTR; [1]) [nM]	Maximum % activity (with co-corrector) (F508delCFTR; with co-corrector (2 μM)) [%]	EC50 (F508delCFTR; [2]) [nM]	Maximum % activity (without co-corrector) (F508delCFTR; without co-corrector) [%]
COc1ncc([C@@H]2C[C@]2(C(=O)NS(=O)(=O)c2cccc3nc(C)ccc23)c2cc(C)ccc2OC)cn1 (single isomer, unassigned) [Example 37]	152	42	3680	460	7260	113
COc1ncc([C@H]2C[C@@]2(C(=O)NS(=O)(=O)c2cccc3nc(C)ccc23)c2cc(C)ccc2OC)cn1 (single isomer, unassigned) [Example 38]	202	219	1810	995	3020	419
COc1ccc(C)cc1[C@@]1(C(=O)NS(=O)(=O)c2cccc3nc(C)ccc23)C[C@H]1c1cncc(C)n1 (single isomer, unassigned) [Example 45]	179	> 300	4620	427	6150	128
COc1cnc([C@@H]2C[C@]2(C(=O)NS(=O)(=O)c2cccc3nc(C)ccc23)c2cc(C)ccc2OC)cn1 (single isomer, unassigned) [Example 47]	247	85.2	1280	775	2210	322
COc1cnc([C@H]2C[C@@]2(C(=O)NS(=O)(=O)c2cccc3nc(C)ccc23)c2cc(C)ccc2OC)cn1 (single isomer, unassigned) [Example 48]	401	47.1	1080		1780	790
COc1cncc([C@@H]2C[C@]2(C(=O)NS(=O)(=O)c2cccc3nc(C)ccc23)c2cc(C)ccc2OC)c1 (single isomer, unassigned) [Example 51]	135	> 300	4380	406	5440	108
COc1ccc(C)cc1[C@@]1(C(=O)NS(=O)(=O)c2cccc3nc(C)ccc23)C[C@H]1c1cncc(F)c1 (single isomer, unassigned) [Example 53]	169	> 300	2610	625	3980	229
COc1ccc(C)cc1[C@]1(C(=O)NS(=O)(=O)c2cccc3nc(C)ccc23)C[C@@H]1c1cncc(F)c1 (single isomer, unassigned) [Example 54]	355	50.8	2000		2930	890
COc1ccc(C)cc1[C@@]1(C(=O)NS(=O)(=O)c2cccc3nc(C)ccc23)C[C@H]1c1cnc(C(C)C)cn1 (single isomer, unassigned) [Example 63]	315	97	890	847	1740	399
COc1cncc([C@@H]2C[C@]2(C(=O)NS(=O)(=O)c2cccc3nc(C)ccc23)c2cc(C)ccc2OC)n1 (single isomer, unassigned) [Example 74]	222	222	743	545	1290	188
COc1cncc([C@H]2C[C@@]2(C(=O)NS(=O)(=O)c2cccc3nc(C)ccc23)c2cc(C)ccc2OC)n1 (single isomer, unassigned) [Example 75]	402	36.2	635		1650	939
COc1ccc(C)cc1[C@@]1(C(=O)NS(=O)(=O)c2cccc3nc(C)ccc23)C[C@H]1c1cnc(C)cn1 (single isomer, unassigned) [Example 91]	138	> 800	4340	579	5240	226
COc1ccc(C)cc1[C@]1(C(=O)NS(=O)(=O)c2cccc3nc(C)ccc23)C[C@@H]1c1cnc(C)cn1 (single isomer, unassigned) [Example 92]	187	87.6	1150		2130	653
COc1ccc([C@@H]2C[C@]2(C(=O)NS(=O)(=O)c2cccc3nc(C)ccc23)c2cc(C)ccc2OC)c(OC)n1 (single isomer, unassigned) [Example 93]	271	42.6	132		268	491
COc1nccc([C@@H]2C[C@]2(C(=O)NS(=O)(=O)c2cccc3nc(C)ccc23)c2cc(C)ccc2OC)n1 (single isomer, unassigned) [Example 99]	126	> 1000	2760	509	3980	180
COc1ccc(C)cc1[C@]1(C(=O)NS(=O)(=O)c2cccc3nc(C)ccc23)C[C@@H]1c1cnc(C)c(F)c1 (single isomer, unassigned) [Example 100]	207	114	2780		4490	

The next compounds have a lower EC50 (F508del/F508del CFTR) than those just listed; values first:

Emax (% Dual) (F508del/F508del CFTR)	EC50 (F508del/F508del CFTR) [nM]	EC50 (F508delCFTR; [1]) [nM]	Maximum % activity (with co-corrector) (F508delCFTR; with co-corrector (2 μM)) [%]	EC50 (F508delCFTR; [2]) [nM]	Maximum % activity (without co-corrector) (F508delCFTR; without co-corrector) [%]	SMILES
364	30.1	1520		2350	783	COc1ccc(C)cc1[C@]1(C(=O)NS(=O)(=O)c2cccc3nc(C)ccc23)C[C@@H]1c1cncc(C)n1 (single isomer, unassigned) [Example 46]
359	5.2	954		2340	951	COc1ccc(C)cc1[C@]1(C(=O)NS(=O)(=O)c2cccc3nc(C)ccc23)C[C@@H]1c1cccnc1OC (single isomer, unassigned) [Example 50]
283	26.6	2140		3320	608	COc1cncc([C@H]2C[C@@]2(C(=O)NS(=O)(=O)c2cccc3nc(C)ccc23)c2cc(C)ccc2OC)c1 (single isomer, unassigned) [Example 52]
208	19.3	586	828	1340	394	CCOc1cnc([C@@H]2C[C@]2(C(=O)NS(=O)(=O)c2cccc3nc(C)ccc23)c2cc(C)ccc2OC)cn1 (single isomer, unassigned) [Example 65]
230	30.6	785		1440	539	CCOc1ncccc1[C@@H]1C[C@]1(C(=O)NS(=O)(=O)c1cccc2nc(C)ccc12)c1cc(C)ccc1OC (single isomer, unassigned) [Example 73]
206	24.7	810		1010	786	COc1ccc(C)cc1[C@@]1(C(=O)NS(=O)(=O)c2cccc3nc(C)ccc23)C[C@H]1c1ccc(C)nc1OC (single isomer, unassigned) [Example 85]
176	24.1	1440		2210		COc1ccc(C)cc1[C@]1(C(=O)NS(=O)(=O)c2cccc3nc(C)ccc23)C[C@@H]1c1ccc(C)nc1OC (single isomer, unassigned) [Example 86]
271	6.9	165		452	881	COc1ccc(C)cc1[C@@]1(C(=O)NS(=O)(=O)c2cccc3nc(C)ccc23)C[C@H]1c1ccc(C(C)C)nc1OC (single isomer, unassigned) [Example 87]
275	12.6	534		1180	910	COc1ccc(C)cc1[C@]1(C(=O)NS(=O)(=O)c2cccc3nc(C)ccc23)C[C@@H]1c1ccc(C(C)C)nc1OC (single isomer, unassigned) [Example 88]
201	21	804		1440		COc1nccc([C@H]2C[C@@]2(C(=O)NS(=O)(=O)c2cccc3nc(C)ccc23)c2cc(C)ccc2OC)n1 (single isomer, unassigned) [Example 98]
